Data set [1] in a line: log P by HPLC on reversed-phase column (C 18), EEC Directive 79/831 Annex V.A8. Type of data set: physicochemical. The settings on record: HPLC on reversed-phase column (C 18); 40° C.; 0.1% aqueous formic acid and acetonitrile; linear gradient 10% to 90% acetonitrile. The essentials:
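Gradient elution (10% to 90% acetonitrile, 0.1% aqueous formic acid) at 40° C; log P interpolated linearly between flanking alkan-2-one standards (3 to 16 carbons).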

Data set [2] concerns Fusarium nivale (var. majus). The experiment in a line: In vivo preventive test on Fusarium nivale (wheat). Particulars: 500 ppm of active ingredient, evaluated 5 days after inoculation. As to the method:
Solvent: 49 parts by weight of N,N-dimethylacetamide Emulsifier: 1 part by weight of alkylaryl polyglycol ether To produce a suitable preparation of active compound, 1 part by weight of active compound or active compound combination is mixed with the stated amounts of solvent and emulsifier, and the concentrate is diluted with water to the desired concentration. To test for preventive activity, young plants are sprayed with the preparation of active compound or active compound combination at the stated rate of application. After the spray coating has been dried, the plants are slightly injured by using a sandblast and afterwards they are sprayed with a conidia suspension of Fusarium nivale (var. majus). The plants are placed in the greenhouse under a translucent incubation cabinet at a temperature of approximately 10° C. and a relative atmospheric humidity of approximately 100%. The test is evaluated 5 days after the inoculation. 0% means an efficacy which corresponds to that of the untreated control, while an efficacy of 100% means that no disease is observed.

The test system of a further data set is Sphaerotheca fuliginea. The data set is described as follows: In vivo preventive test on Sphaerotheca fuliginea (cucumber). The settings on record: 500 ppm of active ingredient, evaluated 7 days after inoculation. The essentials:
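Active compound in DMF with alkylarylpolyglycolether emulsifier, diluted in water and sprayed on young cucumber plants at the stated rate. One day later, plants inoculated with S. fuliginea spore suspension and kept at about 23 °C, 70% RH; efficacy scored 7 days post-inoculation, 0% = untreated, 100% = no disease.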

A further data set deals with Septoria tritici. The experiment in a line: In vivo preventive test on Septoria tritici (wheat). The settings on record: 500 ppm of active ingredient, evaluated 21 days after inoculation. As to the method:
(§1) Solvent: 49 parts by weight of N,N-dimethylacetamide Emulsifier: 1 part by weight of alkylaryl polyglycol ether To produce a suitable preparation of active compound, 1 part by weight of active compound or active compound combination is mixed with the stated amounts of solvent and emulsifier, and the concentrate is diluted with water to the desired concentration. To test for preventive activity, young plants are sprayed with the preparation of active compound or active compound combination at the stated rate of application. After the spray coating has been dried, the plants are sprayed with a spore suspension of Septoria tritici. The plants remain for 48 hours in an incubation cabinet at approximately 20° C. and a relative atmospheric humidity of approximately 100% and afterwards for 60 hours at approximately 15° C. in a translucent incubation cabinet at a relative atmospheric humidity of approximately 100%. The plants are placed in the greenhouse at a temperature of approximately 15° C. and a relative atmospheric humidity of approximately 80%. The test is evaluated 21 days after the inoculation. 0% means an efficacy which corresponds to that of the untreated control, while an efficacy of 100% means that no disease is observed.

The next data set concerns Puccinia triticina. The data set is described as follows: In vivo preventive test on Puccinia triticina (wheat). The settings on record: 500 ppm of active ingredient, evaluated 8 days after inoculation. How it is done:
as §1, with “Puccinia triticina.” for “Septoria tritici.”, “approximately” for “approximately 100% and afterwards for 60 hours at approximately 15° C. in a translucent incubation cabinet at a relative atmospheric humidity of approximately”, “20°” for “15°”, “8” for “21”

For data set [3], the system named is Blumeria graminis f. sp. hordei. The data set is described as follows: In vivo preventive test on Blumeria graminis (barley). The settings on record: 500 ppm of active ingredient, evaluated 7 days after inoculation. How it is done:
Solvent: 49 parts by weight of N,N-dimethylacetamide Emulsifier: 1 part by weight of alkylaryl polyglycol ether To produce a suitable preparation of active compound, 1 part by weight of active compound or active compound combination is mixed with the stated amounts of solvent and emulsifier, and the concentrate is diluted with water to the desired concentration. To test for preventive activity, young plants are sprayed with the preparation of active compound or active compound combination at the stated rate of application. After the spray coating has been dried, the plants are dusted with spores of Blumeria graminis f. sp. hordei. The plants are placed in the greenhouse at a temperature of approximately 18° C. and a relative atmospheric humidity of approximately 80% to promote the development of mildew pustules. The test is evaluated 7 days after the inoculation. 0% means an efficacy which corresponds to that of the untreated control, while an efficacy of 100% means that no disease is observed.

The next data set relates to Leptosphaeria nodorum. The experiment in a line: In vivo preventive test on Leptosphaeria nodorum (wheat). The settings on record: 500 ppm of active ingredient, evaluated 8 days after inoculation. As to the method: as §1, with “Leptosphaeria nodorum.” for “Septoria tritici.”, “approximately” for “approximately 100% and afterwards for 60 hours at approximately 15° C. in a translucent incubation cabinet at a relative atmospheric humidity of approximately”, “22°” for “15°”, “8” for “21”

The next data set relates to Venturia inaequalis. The data set is described as follows: In vivo preventive test on Venturia inaequalis (apple scab). Particulars: 100 ppm of active ingredient, evaluated 10 days after inoculation. How it is done: (§2) Solvent: 24.5 parts by weight of acetone • 24.5 parts by weight of N,N-dimethylacetamide Emulsifier: 1 part by weight of alkylaryl polyglycol ether To produce a suitable preparation of active compound, 1 part by weight of active compound is mixed with the stated amounts of solvent and emulsifier, and the concentrate is diluted with water to the desired concentration. To test for preventive activity, young plants are sprayed with the preparation of active compound at the stated rate of application. After the spray coating has dried on, the plants are inoculated with an aqueous conidia suspension of the causal agent of apple scab (Venturia inaequalis) and then remain for 1 day in an incubation cabinet at approximately 20° C. and a relative atmospheric humidity of 100%. The plants are then placed in a greenhouse at approximately 21° C. and a relative atmospheric humidity of approximately 90%. The test is evaluated 10 days after the inoculation. 0% means an efficacy which corresponds to that of the untreated control, while an efficacy of 100% means that no disease is observed.

In another data set the test system is Pyrenophora teres. The data set is described as follows: In vivo preventive test on Pyrenophora teres (barley). The settings on record: 500 ppm of active ingredient, evaluated 7-9 days after inoculation. An outline of the steps:
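Young barley plants sprayed with compound in DMF/alkylaryl polyglycol ether emulsion; inoculated with P. teres spores one day later. 48 h at 22 °C, 100% humidity, then greenhouse ~20 °C, ~80% humidity; efficacy scored 7-9 days post-inoculation, 0% = untreated, 100% = no disease.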

The test system of another data set is Alternaria solani. The data set is described as follows: In vivo preventive test on Alternaria solani (tomato). Particulars: 500 ppm of active ingredient, evaluated 7 days after inoculation. An outline of the steps:
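Young tomato plants were sprayed preventively with compound in DMF/alkylarylpolyglycolether diluted in water, then inoculated one day later with A. solani spores. Incubation was 1 day at about 22 °C and 100% RH, then about 20 °C and 96% RH. Efficacy was scored 7 days after inoculation (0% = untreated control, 100% = no disease).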

The test system of a further data set is Uromyces appendiculatus. The experiment in a line: In vivo preventive test on Uromyces appendiculatus (bean rust). Particulars: 100 ppm of active ingredient, evaluated 10 days after inoculation. As to the method:
as §2, with “spore” for “conidia”, “bean rust (Uromyces appendiculatus)” for “apple scab (Venturia inaequalis)”

Another data set has as its system Phakopsora pachyrhizi. The experiment in a line: In vivo protective test on Phakopsora pachyrhizi (soybeans). The settings on record: 250 ppm of active ingredient, evaluated 11 days after inoculation.

Usually logP stands for the decadic logarithm of the partition coefficient of the neutral form, usually between octanol and water. For `Cc1cc(C)cc(C2CCCCN2C(=O)c2c(C(F)F)nn(C)c2F)c1` (stereo not shown) [Example 30], the logP in data set [1] is 3.71. Also, the Efficacy in [2] turned out to be 100%; in the data set with Sphaerotheca fuliginea, 100%; in the data set on Septoria tritici, 100%; in the data set on Puccinia triticina, 100%; in [3], 100%; with Leptosphaeria nodorum it was 90%. In addition, the Efficacy with Venturia inaequalis and in the data set with Pyrenophora teres was 100% throughout.

For `Cc1cc(C(=O)N2CCCCC2c2ccc(Cl)cc2)c(C)o1` (stereo not shown) [Example 53], the logP in [1] came to 4.04. Also, the Efficacy in data set [2] is 100%; with Septoria tritici it was 90%; with Puccinia triticina, 71%; in data set [3], 70%; with Leptosphaeria nodorum, 78%; with Alternaria solani, 90%. This compound yielded an Efficacy in the data set on Pyrenophora teres of 95%.

In turn, `CCc1nn(C)c(F)c1C(=O)N1CCCCC1c1cc(OC)cc(OC)c1` (stereo not shown) [Example 67] returned a logP in data set [1] of 2.84. Further, the Efficacy in the data set on Uromyces appendiculatus is 95%; with Phakopsora pachyrhizi, 90%; with Alternaria solani, 95%; with Venturia inaequalis, 100%; with Pyrenophora teres, 90%.

`Cc1nn(C)c(F)c1C(=O)N1CCCCC1c1cccc(Br)c1` (stereo not shown) [Example 95] registered a logP in [1] of 3.06. The Efficacy in data set [2] is 100%; with Sphaerotheca fuliginea, 91%; in the data set on Septoria tritici, 100%; with Puccinia triticina, 71%; in data set [3], 100%; with Leptosphaeria nodorum, 89%. Besides, the Efficacy was determined as 100% in the data set with Alternaria solani and 95% with Pyrenophora teres.

For the compound `CCC(c1ccccc1Cl)C1CCCCN1C(=O)c1c(C(F)F)nn(C)c1F` (stereo not shown) [Example 162], the logP in data set [1] came out at 4.13. In addition, the Efficacy in the data set with Sphaerotheca fuliginea is listed as 100%; with Septoria tritici, 100%; in the data set on Puccinia triticina it was 100%; in data set [3] it was 94%; in the data set on Leptosphaeria nodorum, 90%; with Alternaria solani it was 100%. This compound registered an Efficacy in the data set with Pyrenophora teres of 100%.

The values above are taken from US9545105B2, “1-(heterocyclic carbonyl) piperidines” (BAYER INTELLECTUAL PROPERTY GMBH, priority 2010, dated 2017).
